From paper PMC11508633, “In Silico Discovery of a Novel PI3Kδ Inhibitor Incorporating 3,5,7-Trihydroxychroman-4-one Targeting Diffuse Large B-Cell Lymphoma” (International Journal of Molecular Sciences, 2024)

Molecular target: T1, PI3Kδ (Homo sapiens, UniProt O00329)
T1 construct: gene PIK3CD; PI3Kδ (p120δ/p85α); with p85α
Assay: ADP-Glo kinase assay (PIP2:PS substrate, […] ATP)
Assay type: biochemical

T1 sequence (O00329 whole entry): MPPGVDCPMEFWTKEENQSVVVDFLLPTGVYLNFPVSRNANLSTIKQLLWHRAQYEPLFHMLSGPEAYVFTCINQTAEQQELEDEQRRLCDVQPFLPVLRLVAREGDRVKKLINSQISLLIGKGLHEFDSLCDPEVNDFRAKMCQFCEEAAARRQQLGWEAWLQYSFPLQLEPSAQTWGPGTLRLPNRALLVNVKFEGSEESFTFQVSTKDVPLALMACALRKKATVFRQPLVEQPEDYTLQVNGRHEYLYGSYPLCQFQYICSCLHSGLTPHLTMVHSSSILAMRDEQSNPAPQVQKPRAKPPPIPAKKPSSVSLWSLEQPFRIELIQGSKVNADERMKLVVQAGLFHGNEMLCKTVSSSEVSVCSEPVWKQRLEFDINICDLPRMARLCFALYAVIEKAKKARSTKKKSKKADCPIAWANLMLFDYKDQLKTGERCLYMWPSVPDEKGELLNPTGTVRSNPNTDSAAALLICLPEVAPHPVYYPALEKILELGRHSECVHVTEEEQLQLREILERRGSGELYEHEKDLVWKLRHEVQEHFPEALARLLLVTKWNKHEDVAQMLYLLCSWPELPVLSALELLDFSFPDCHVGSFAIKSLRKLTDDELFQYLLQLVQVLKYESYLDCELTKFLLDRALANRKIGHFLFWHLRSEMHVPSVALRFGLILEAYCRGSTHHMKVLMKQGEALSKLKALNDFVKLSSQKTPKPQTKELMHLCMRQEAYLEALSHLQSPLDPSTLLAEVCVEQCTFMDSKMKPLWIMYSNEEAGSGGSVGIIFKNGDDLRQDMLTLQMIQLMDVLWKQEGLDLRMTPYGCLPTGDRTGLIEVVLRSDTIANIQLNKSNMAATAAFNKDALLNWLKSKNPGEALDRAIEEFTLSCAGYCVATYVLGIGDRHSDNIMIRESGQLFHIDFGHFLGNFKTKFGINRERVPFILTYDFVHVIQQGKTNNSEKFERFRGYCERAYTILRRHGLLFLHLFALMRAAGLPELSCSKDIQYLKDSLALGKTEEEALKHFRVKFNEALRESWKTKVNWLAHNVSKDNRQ
T1 sequence (P27986 2-724 partner): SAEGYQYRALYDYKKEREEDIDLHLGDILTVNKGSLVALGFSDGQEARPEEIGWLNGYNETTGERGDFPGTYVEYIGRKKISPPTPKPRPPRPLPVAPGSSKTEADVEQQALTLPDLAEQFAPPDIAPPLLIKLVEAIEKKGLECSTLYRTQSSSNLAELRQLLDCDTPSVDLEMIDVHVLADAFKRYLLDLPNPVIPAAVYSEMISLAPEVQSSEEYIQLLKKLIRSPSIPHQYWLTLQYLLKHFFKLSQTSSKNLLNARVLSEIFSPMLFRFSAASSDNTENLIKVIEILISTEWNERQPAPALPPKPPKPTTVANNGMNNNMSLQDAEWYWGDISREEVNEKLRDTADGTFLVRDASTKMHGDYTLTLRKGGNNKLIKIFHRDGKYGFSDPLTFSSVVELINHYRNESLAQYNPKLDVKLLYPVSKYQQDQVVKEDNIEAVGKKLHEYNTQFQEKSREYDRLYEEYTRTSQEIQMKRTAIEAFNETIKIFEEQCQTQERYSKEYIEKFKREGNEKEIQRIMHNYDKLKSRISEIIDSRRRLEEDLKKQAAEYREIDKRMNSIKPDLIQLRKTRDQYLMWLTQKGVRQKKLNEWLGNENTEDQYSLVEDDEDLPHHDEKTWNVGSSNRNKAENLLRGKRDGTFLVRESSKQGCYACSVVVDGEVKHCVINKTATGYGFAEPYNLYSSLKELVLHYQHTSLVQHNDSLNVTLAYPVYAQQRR

With `COc1cc(C2Oc3cc([C@H]4Oc5cc(O)cc(O)c5C(=O)[C@@H]4O)ccc3OC2CO)ccc1O` (stereo partly shown) [Silibinin] as the compound, how does the IC50 read?
The IC50 was 288 µM.
